Patent US10059702B2, “Inhibitors of LC3/ATG3 interaction and their use in the treatment of cancer” (THE JOHNS HOPKINS UNIVERSITY, priority 2014, dated 2018)

Columns and labels:
[1] = tested on: MCF-7, a breast cancer cell line; experiment: Impedance assay (xCELLigence, Cell Index), MCF-7; type: cell-based; settings: for effect on cell impedance: MCF-7, 100 μM to 1.5 μM
Method: (§1) PTA or Compound 10 were added ranging from 100 μM to 1.5 μM to the cells after […]. The apparent IC50 after 72 hours of drug treatment was calculated and is shown in the inset of each graph of the triplicate impedance measurement per concentration. The DMSO vehicle control is shown as dark red line.
(§2) MCF-7 cells were maintained in RPMI media supplemented with 10% fetal bovine serum. HepG2 cells were maintained in Dulbecco's modified Eagle medium (DMEM, Invitrogen) media supplemented with 10% fetal bovine serum and 1×MEM non-essential amino acids. For cytotoxicity experiments, cells were plated on T-75 flasks and grown until they reached at 70-80% confluency.
(§3) Cell proliferation was monitored in real-time cell electronic sensing (xCELLigence System, Acea Biosciences) through gold microelectrode arrays on the bottom of 96 E-Plates. 100 μl of corresponding culture media was added into each well of 96 E-Plates, which inserted into the station and background measurement was taken. Then, cells (5,000 cells/well in 100 μl) were seeded into 96 E-Plates containing 100 μl medium/well. After about 20 hours, 200 μl medium was discarded and replaced with 100 μl of fresh medium containing indicated amounts of compounds for each well. In the xCELLigence System the changes in cell number are detected as modifications in the measurement of electrical impedance and are represented as Cell Index (CI).
(§4) To define the range of metastasizing cancer cell lines susceptible to PTA derivatives of the present invention, we can use the HUVEC electrical-impedance assay. Invasive tumor cell lines are monitored through electric impedance measurements of human umbilical vein endothelial cells (HUVEC) monolayers in the presence of PTA derivatives. […] The invasion potential of the tumor cell is measured by the change in cell impedance as the HUVEC monolayer junctions are compromised by the invading tumor cells. Cells can be monitored over multiple days while the real-time impedance is recorded. […]

[2] = tested on: HepG2, a hepatocarcinoma cell line; experiment: Impedance assay (xCELLigence, Cell Index), HepG2; type: cell-based; settings: for effect on cell impedance: HepG2, 100 μM to 1.5 μM
Method: as §1, §2, §3, §4

[3] = target: hLC3; experiment: SPR binding of purified hLC3 to PTA immobilized on an SPR chip; parameters: species or system human; settings: read-out: affinity of hLC3 to PTA on the SPR chip
Excerpt: (§5) FIGS. 2A-2C depict the properties of the PTA-binding site on hLC3. 2A) Energy-minimized docking pose of PTA to hLC3. The pyridinylthiazolamine ringsystem predominantly binds to the W-site of hLC3. 2B) Conservation of amino acids between hLC3 and Plasmodium Atg8. Shown in yellow sticks is the bound peptide of Atg3. The W-Site is highly conserved, whereas the L-site is less conserved, explaining the lower affinity of hLC3 to PTA (FIGS. 2A, 2B adapted from Hain et al. 2013). 2C) Direct binding interaction of purified hLC3 or PfAtg8 to PTA immobilized on a SPR chip to determine their respective affinities.
(§6) In comparing the sequence conservation of this W-/L-site between PfAtg8 and hLC3, it is apparent that the W-site has maintained a higher degree of conservation, as indicated by the magenta patch in FIG. 2B. To test whether or not the W-/L-site of Atg8 was indeed the interaction area to which our small molecules bind, we performed SPR binding studies with different Atg8-homologs, essentially mimicking mutational studies in the environment of the W-/L-site. This allowed us to explore the key features of the binding site in a manner that was much more efficient than introducing multiple single point mutations for each protein of interest at a time.
(§7) SPR studies were performed on PfAtg8 and hLC3 binding to the PTA molecule immobilized on an SPR chip. […]

[4] = target: T1, PfAtg8 (Plasmodium falciparum, UniProt Q8IJK2); experiment: SPR binding of purified PfAtg8 to PTA immobilized on an SPR chip; settings: comparison of hLC3 with PfAtg8
T1 sequence (Q8IJK2 1-124): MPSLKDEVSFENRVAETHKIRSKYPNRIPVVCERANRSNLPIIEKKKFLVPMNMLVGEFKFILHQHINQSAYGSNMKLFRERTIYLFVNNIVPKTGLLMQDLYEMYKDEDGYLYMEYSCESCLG
Excerpt: as §5, §6, §7

[5] = tested on: HC-04 liver cells; experiment: Cytotoxicity in HC-04 liver cells; type: cell-based; settings: 30 μM PTA for 96 hours
[6] = target: PfAtg8 (Plasmodium falciparum, UniProt Q8IJK2); experiment: Surface plasmon resonance (SPR): direct binding of purified PfAtg8 to PTA immobilized on an SPR chip; settings: W-/L-site, FIG. 3, read-out: PfAtg8 Kd (binding affinity to PTA)
Excerpt: as §5
To maintain the identical view, residue differences were painted onto the PfAtg8 structure. Residues in the proximity of the W-/L-site of hLC3 lead to lower binding affinities of our current molecule targeting the Atg8-Atg3 interaction.
as §6, with “This allowed us to explore the key features of the binding site in a manner that was much more efficient than introducing multiple single point mutations for each protein of interest at a time.” left out

[7] = tested on: HCT8 colon cancer cells; experiment: PTA-susceptibility of HCT8 colon cancer cells: microscopy and anti-LC3 Western blot; type: cell-based, human; settings: 24 hours
Excerpt: FIG. 4 provides an anti-LC3 Western blot of PTA treated HCT8 colon cancer cells with corresponding Coomassie stained 4-20% SDS-PAGE. The arrows indicate the band used for quantification with ImageJ. The SDS gel indicates approximate equal amounts were loaded per lane.
To be functional in autophagy processes, hLC3 undergoes two critical activation processes. First a C-terminal glycine has to be exposed through proteolytic cleavage by the […] protease Atg4. Second, a lipid, phosphatidylethanolamine (PE), is conjugated to the C-terminal glycine residue resulting in hLC3-PE (hLC3-II). The inventors previously discovered 4-formyl-N-(4-pyridin-2-yl-1,3-thiazol-2-yl)benzamide (PTA) as an autophagy inhibitor in their studies on the plasmodial system in search of protein-protein interaction inhibitors of the PfAtg8-PfAtg3 interaction, the homologous system in the malaria parasite. The lipidated form of either Atg8 or hLC3 (hLC3-II) can be resolved from the unlipidated form (hLC3-I) using SDS-PAGE due to their different migration speeds. Specific commercial antibodies for hLC3 detection were used in these studies to quantify the two species via Western blot in treated and untreated cancer cell lines.
We used a DMSO-vehicle control. All experiments were carried out at 1% final DMSO concentration for 24 hours at 37° C. and 5% CO2. […] The DMSO control sample was trypsinized to detach the cells from the culture dish. All cells were collected and spun down before resuspending them in SDS-loading dye for SDS-PAGE and Western blot analysis. Commercial monoclonal antibodies directed against hLC3 (D3U4C Rabbit mAB) and GAPDH (14C10 Rabbit mAB) as loading control were used. The Western blot clearly distinguishes between the un-lipidated (hLC3-I) and lipidated (hLC3-II) form by their migration speed in the SDS-gel (FIG. 4). The lipidated form migrates faster in an SDS-gel due to its additional negative charge from the conjugated phospholipid. […] 0.5% DMSO will be used as a vehicle control and 33 nM Wortmannin as a positive control for autophagy inhibition.

[8] = tested on: hLC3 with hAtg3 interaction; experiment: hLC3/hAtg3 protein-protein interaction in vitro; type: binding, human
Method: Our structural understanding of how the hLC3 binds the PTA-scaffold combined with surface plasmon resonance (SPR)-interaction studies, has enabled the inventors to design the PTA-analogs of the present invention with low Koff-rates. […] These new PTA-analogs are tested in SPR-based assays with purified recombinant hLC3 and hAtg3 to assess their ability to prevent the protein-protein interaction. Newly emerging molecules from our efforts are subjected to dose-dependent cell based screening with our cancer line collection.
About 120 PTA-homologs were identified in the PubChem database (pubchem.ncbi.nlm.nih.gov) that are available through commercial vendors. In a first assessment to determine which homologs to focus on initially, virtual library screening was performed with the known hLC3 structures (1UGM, 3ECI, 3WAL, 3WAO). Comparing the docking results from different structures of hLC3 allowed us to assemble a short list of nine high priority compounds (compounds 1-9). […] Two complementary assays will be utilized, the first assesses the small molecule's ability to block the protein-protein interaction of hLC3 with hAtg3. The second assay is used to directly measure the binding of the small molecule to immobilized hLC3 on an SPR chip, which will allow us to draw conclusions about the physical interaction between the two binding partners.

SMILES: COC(OC)c1ccc(C(=O)Nc2ncc(-c3ccccn3)s2)cc1 [Compound 10]
- effect on cell impedance [1]: concentration dependent effect
- effect on cell impedance [2]: concentration dependent effect

SMILES: O=Cc1ccc(C(=O)Nc2nc(-c3ccccn3)cs2)cc1 [PTA, 4-formyl-N-(4-pyridin-2-yl-1,3-thiazol-2-yl)benzamide]
- IC50 ([1]; MCF7a, MCF-7, impedance, 100 μM to 1.5 μM, 72 hours, read-out: apparent IC50 after 72 hours of drug treatment): ~18 µM
- effect on cell impedance [1]: concentration dependent effect
- Kd [3]: 18 µM
- binding affinity to immobilized PTA, hLC3 versus PfAtg8 [4]: decrease of binding affinity for hLC3 versus PfAtg8
- cytotoxic effect / tolerability [5]: well tolerated
- effect on cell impedance [2]: concentration dependent effect
- IC50 ([2]; Homo sapiens, HepG2, impedance, 100 μM to 1.5 μM, 72 hours, read-out: apparent IC50 after 72 hours of drug treatment): ~18 µM
- Kd [6]: 0.54 µM
- cell appearance by microscopy at lowest concentration ([7]; HCT8, 6.75 μM PTA): a few patches of attached cells still visible
- hLC3 lipidation (hLC3-I / hLC3-II bands) in Western blot ([7]; HCT8, PTA treated): accumulation of the slower migrating hLC3-I band is visible
- cell appearance by microscopy ([7]; HCT8, about 100 μM to 6.25 μM PTA, 1% DMSO): detached, blebbing cells with a concentration dependent phenotype
- prevention of protein-protein interaction of hLC3 with hAtg3 [8]: specifically prevents the protein-protein interaction of hLC3 with hAtg3
